Values of other authors, collected in patent US20120231098A1, “Weight loss composition” (priority 2011, published 2012).

Conditions: by increasing the utilization of fat stores in the body during exercise

For `Cn1c(=O)c2c(ncn2C)n(C)c1=O` [Caffeine, caffeine], the increase in endurance is given as no less than 15%.
